The subject of assay [1] is human LDLs. Nature of the assay: Modification of the LDLs by copper sulphate (MDA formation). The format is biochemical. As to conditions: for IC50: oxidation by copper sulphate, 24 hours, read-out: IC50 Cu^2+ (inhibition of lipid peroxidation of human LDLs, MDA production). As for the experimental part: Human LDLs are incubated for 24 hours in the presence of copper sulphate (5×10^-5 M or 5×10^-6 M) and in the absence or presence of the test compounds (10^-7 M to 10^-4 M).
After incubation, the peroxidation of the LDLs is evaluated by electrophoresis on agar gel and by the formation of one of the products of lipid peroxidation: malonic dialdehyde (MDA) (Parthasarathy S., Young S. G., Witztum J. L., Pittman R. C., and Steinberg D.; J. Clin. Invest. 77, 641-644, 1986).
The activity of the test compounds is evaluated by calculating the concentrations that reduce the production of MDA by 50% (IC50) compared with control experiments carried out in the absence of test compound.
(§1) Table A lists the IC50 values, which indicate the capacity to inhibit the lipid peroxidation of human LDLs, obtained with a sample of the compounds of the invention and of the reference compounds probucol and vitamin E, in two tests causing the development of the oxidation of the LDLs: by copper sulphate (Cu^2+) or by endothelial cells (EC).

Assay [2] relates to human LDLs. Nature of the assay: Modification of the LDLs by endothelial cells (MDA formation). The format is cell-based. As for the experimental part:
Human LDLs are incubated for 24 hours in the presence of rabbit aorta endothelial cells (line RECL B4 supplied by Professor Steinberg, USA) and in the absence or presence of the test compounds (10^-7 M to 10^-4 M).
After incubation, the peroxidation of the LDLs is evaluated by electrophoresis on agar gel and by the formation of one of the products of lipid peroxidation: malonic dialdehyde (MDA) (Steinbrecher U.P., Parthasarathy S, Leake D. S., Witztum J. L., and Steinberg D., Proc. Nat. Acad. Sci. USA 81. 3883-3887, 1984).
The activity of the test compounds is evaluated by calculating the concentrations that reduce the production of MDA by 50% (IC50) compared with the control experiments carried out in the absence of test compound.
as §1

The next assay deals with cardiac cells. Nature of the assay: Oxidative necrosis of cardiac cells induced by hypoxanthine/xanthine oxidase. Type of assay: cell-based, new-born rats. As to conditions: for activity at 10 µM / activity at 1 µM / activity at 0.1 µM: control = 100, means ± sem, read-out: index of necrosis of cardiac cells; for activity at 0.1 µM: 10^-7 M. As for the experimental part:
Cardiac cells of new-born rats are used between the 5th and 6th days after placing in a culture. Oxidative necrosis is induced by the enzymatic system hypoxanthine (HX, 1 mM) and xanthine oxidase (XO, 10 mU/ml), which produces free radicals. The necrosis is evaluated 4 hours after the addition of XO/HX by the spectrophotometric measurement of the cytosolic α-hydroxybutyrate dehydrogenase (α-HBDH) activity liberated in the supernatant. Two reference molecules (probucol, vitamin E) and 3 molecules representative of the present invention (corresponding to Examples 1, 3 and 4) were tested. The cells are treated with the molecules 16 hours and 1 hour before the beginning of the experiment after renewing the medium. At the beginning of the experiment, the treatment is carried out one last time.
Table B lists the indices of the necrosis of cardiac cells induced by the system hypoxanthine/xanthine oxidase on its own or in the presence of increasing concentrations of the compounds of the invention or of the reference compounds: probucol and vitamin E.
The necrosis index 100 corresponds to a liberation of 43.6±1.0% in 4 hours of the cytosolic content of α-HBDH in the supernatant.
The results are expressed in the form of means ± sem (4≤n≤5, 3 repetitions per experiment).

Assay [3] deals with LDLs of the Watanabe rabbits. Nature of the assay: Ex vivo copper sulphate oxidation of LDLs from orally treated Watanabe rabbits (MDA production). The format is in vivo. As to conditions: for MDA production: 3 days. As for the experimental part: Watanabe rabbits ([…] hyperlipidaemic rabbits) are used that range in weight from 3 kg to 5 kg. The animals are treated orally with the carrier of the test compounds (control group) or with the test compounds at doses of 10, 50 and 250 mg/kg/day for 3 days.
When the treatment is complete, the LDLs of the animals are prepared by ultracentrifugation and subjected to oxidation with copper sulphate (5×10^-6 M). The lipid peroxidation of the LDLs is evaluated after various periods of incubation with copper sulphate (from 2 to 24 hours) by measuring the formation of MDA.
Table C lists the MDA production values according to the incubation period with copper sulphate of those LDLs originating from the control animals and those originating from the animals treated with the compounds of Examples 1, 3 and 31 at different doses or with probucol.

[4] abbreviates: Rattus norvegicus, 4 h, 10^-5 M.
[5] abbreviates: Rattus norvegicus, 4 h, 10^-6 M.
The mark [6] stands for this setting: 250 mg/kg/day oral, 2 hours incubation with copper sulphate.
Setting [7] is: 250 mg/kg/day oral, 4 hours incubation with copper sulphate.
The mark [8] stands for this setting: 250 mg/kg/day oral, 6 hours incubation with copper sulphate.
Setting [9] is: 250 mg/kg/day oral, 8 hours incubation with copper sulphate.
Setting [10] is: 250 mg/kg/day oral, 24 hours incubation with copper sulphate.
Setting [11] is: oral, peroxidation induced by copper sulphate.

Bounds are passed on as bounds.

As usually defined, the IC50 is the concentration that gives 50% inhibition. As to `CC(C)(C)c1cc(SCCCN2CCC3(CC2)CNC(=O)O3)cc(C(C)(C)C)c1O` [Example 3], the “ability to protect human LDLs compared with probucol or vitamin E, copper sulphate” value in the assay with human LDLs [1] (modifications induced by copper sulphate) was “greater ability”. Moreover, the IC50 with human LDLs [1] worked out at 0.3 µM. Besides, the “ability to protect human LDLs compared with probucol or vitamin E, endothelial cells” value with human LDLs [2] (modifications induced by endothelial cells) is “greater ability”. Moreover, the “times more powerful than probucol (endothelial cells)” value in the assay with human LDLs [2] (test using endothelial cells) came out at 100 times. The “effect on oxidative necrosis of cardiac cells compared with reference compounds” value in the assay on cardiac cells (10^-6 M and 10^-5 M) was “distinctly superior to the reference compounds”. The activity at 10 µM in the assay on cardiac cells (setting [4]) amounted to 4.2 ± 2.7%. Besides, the activity at 1 µM in the assay on cardiac cells (setting [5]) amounted to 12 ± 4.4%. In the assay with cardiac cells (Rattus norvegicus, 4 h), the activity at 0.1 µM was 60.6 ± 17.1%. For the same compound, the inhibition at 10 µM with cardiac cells (Rattus norvegicus, Cardiomyocyte, 4 h, 10^-5 M, read-out: reduction of oxidative necrosis of cardiomyocytes) is > 95%. In addition, in the assay on cardiac cells (Rattus norvegicus, Cardiomyocyte, 4 h, 10^-6 M, read-out: reduction of oxidative necrosis of cardiomyocytes), the inhibition at 1 µM was > 80%. Also, the MDA production in assay [3] (10 mg/kg/day oral, 2 hours incubation with copper sulphate) is 1.27 nM/mg proteins; in assay [3] (10 mg/kg/day oral, 4 hours incubation with copper sulphate), 0.27 nM/mg proteins; in assay [3] (10 mg/kg/day oral, 6 hours incubation with copper sulphate), 3.29 nM/mg proteins; in assay [3] (10 mg/kg/day oral, 8 hours incubation with copper sulphate), 6.85 nM/mg proteins; in assay [3] (10 mg/kg/day oral, 24 hours incubation with copper sulphate) it was 22.78 nM/mg proteins; in assay [3] (50 mg/kg/day oral, 2 hours incubation with copper sulphate) it was 0.16 nM/mg proteins. Further, the MDA production in assay [3] (50 mg/kg/day oral, 4 hours incubation with copper sulphate) stood at 0 nM/mg proteins; in assay [3] (50 mg/kg/day oral, 6 hours incubation with copper sulphate) it was 1.06 nM/mg proteins; in assay [3] (50 mg/kg/day oral, 8 hours incubation with copper sulphate), 1.44 nM/mg proteins; in assay [3] (50 mg/kg/day oral, 24 hours incubation with copper sulphate), 7.30 nM/mg proteins; in assay [3] (setting [6]), 0.66 nM/mg proteins; in assay [3] (setting [7]), 0 nM/mg proteins. The MDA production in assay [3] (setting [8]) is recorded as 0 nM/mg proteins; in assay [3] (setting [9]), 0.69 nM/mg proteins; in assay [3] (setting [10]), 0.91 nM/mg proteins. Moreover, the “dose from which particularly effective” value in assay [3] (setting [11]) was ≥ 10 mg/kg/day. Moreover, the “dose from which peroxidation of the LDLs is inhibited” value in assay [3] (setting [11]) is listed as ≥ 50 mg/kg/day.

As to `CC(C)(Sc1cc(C(C)(C)C)c(O)c(C(C)(C)C)c1)Sc1cc(C(C)(C)C)c(O)c(C(C)(C)C)c1` [probucol, reference compound], the IC50 in the assay with human LDLs [1] is 3 µM; in the assay with human LDLs [2] (oxidation by rabbit aorta endothelial cells, 24 hours, read-out: IC50 EC (inhibition of lipid peroxidation of human LDLs, MDA production)), 4 µM. Also, the activity at 10 µM with cardiac cells (setting [4]) is 26.6 ± 6.3%. In addition, the activity at 1 µM in the assay with cardiac cells (setting [5]) amounted to 68.8 ± 3.9%. Moreover, in the assay on cardiac cells (Rattus norvegicus, 4 h), the activity at 0.1 µM came to 103 ± 2%. Moreover, the MDA production in assay [3] (setting [6]) turned out to be 1.85 nM/mg proteins; in assay [3] (setting [7]) it was 3.50 nM/mg proteins; in assay [3] (setting [8]), 4.90 nM/mg proteins; in assay [3] (setting [9]), 12.26 nM/mg proteins; in assay [3] (setting [10]), 23.81 nM/mg proteins. In addition, the “retardation of peroxidation of the LDLs compared with control animals” value in assay [3] (oral treatment of Watanabe rabbits) is recorded as “approximately 2 hours”.

These data come from patent US5206247A, “Spiro(4.5.)decane compounds” (Adir Et Compagnie, priority 1990, dated 1993).
